Source: ChEMBL document CHEMBL5029145, “Discovery of AZD8154, a Dual PI3Kγδ Inhibitor for the Treatment of Asthma” (J Med Chem, 2021)

Legend:
[1] = biological target: Phosphatidylinositol 4,5-bisphosphate 3-kinase catalytic subunit gamma isoform (Homo sapiens, UniProt P48736); test: Inhibition of recombinant human PI3Kgamma assessed as reduction in ADP production using Dic8-PIP2 as substrate pre-treated for 15 mins followed by substrate addition measured after 60 mins by ADP-glo assay
[2] = biological target: T1, Phosphatidylinositol 4,5-bisphosphate 3-kinase catalytic subunit delta isoform (Homo sapiens, UniProt O00329); test: Inhibition of recombinant human PI3Kdelta assessed as reduction in ADP production using Dic8-PIP2 as substrate pre-treated for 15 mins followed by substrate addition measured after 60 mins by ADP-glo assay
T1 sequence (O00329 whole entry): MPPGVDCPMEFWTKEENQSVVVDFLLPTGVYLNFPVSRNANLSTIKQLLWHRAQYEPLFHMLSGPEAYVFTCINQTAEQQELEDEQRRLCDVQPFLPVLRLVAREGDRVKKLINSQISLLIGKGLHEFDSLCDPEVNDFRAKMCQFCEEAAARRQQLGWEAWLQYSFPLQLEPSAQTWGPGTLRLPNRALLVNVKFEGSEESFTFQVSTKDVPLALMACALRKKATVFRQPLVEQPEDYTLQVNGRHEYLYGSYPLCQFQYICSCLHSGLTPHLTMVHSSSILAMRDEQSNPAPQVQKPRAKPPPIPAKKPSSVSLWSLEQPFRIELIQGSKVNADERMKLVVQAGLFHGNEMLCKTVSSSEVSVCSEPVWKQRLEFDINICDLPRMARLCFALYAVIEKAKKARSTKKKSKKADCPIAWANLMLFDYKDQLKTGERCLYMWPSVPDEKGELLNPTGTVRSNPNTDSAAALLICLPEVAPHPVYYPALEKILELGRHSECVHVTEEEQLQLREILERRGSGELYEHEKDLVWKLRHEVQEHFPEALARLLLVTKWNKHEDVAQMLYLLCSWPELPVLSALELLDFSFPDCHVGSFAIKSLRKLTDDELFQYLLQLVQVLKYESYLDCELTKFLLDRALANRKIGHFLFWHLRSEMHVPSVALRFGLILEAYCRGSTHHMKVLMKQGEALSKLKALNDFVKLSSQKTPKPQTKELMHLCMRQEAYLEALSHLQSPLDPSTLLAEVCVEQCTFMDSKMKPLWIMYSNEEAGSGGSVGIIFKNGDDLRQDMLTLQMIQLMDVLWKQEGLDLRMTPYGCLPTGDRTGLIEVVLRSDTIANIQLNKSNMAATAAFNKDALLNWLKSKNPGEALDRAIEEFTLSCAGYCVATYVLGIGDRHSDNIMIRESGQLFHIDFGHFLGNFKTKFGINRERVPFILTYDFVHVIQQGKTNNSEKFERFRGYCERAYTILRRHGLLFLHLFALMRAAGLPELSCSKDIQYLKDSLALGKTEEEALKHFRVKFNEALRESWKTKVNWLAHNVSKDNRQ

[3] = biological target: Phosphatidylinositol 4,5-bisphosphate 3-kinase catalytic subunit gamma isoform (Mus musculus, UniProt Q9JHG7); test: Inhibition of PI3Kgamma in C5a-stimulated mouse RAW 264 cells assessed as inhibition of AKT phosphorylation at Ser473 residue Pretreated for 15 mins followed by C5a stimulation measured after 3 mins by HTRF assay; format: cell-based
Phosphatidylinositol 4,5-bisphosphate 3-kinase catalytic subunit gamma isoform (Mus musculus, UniProt Q9JHG7), sequence (Q9JHG7 whole entry, canonical isoform): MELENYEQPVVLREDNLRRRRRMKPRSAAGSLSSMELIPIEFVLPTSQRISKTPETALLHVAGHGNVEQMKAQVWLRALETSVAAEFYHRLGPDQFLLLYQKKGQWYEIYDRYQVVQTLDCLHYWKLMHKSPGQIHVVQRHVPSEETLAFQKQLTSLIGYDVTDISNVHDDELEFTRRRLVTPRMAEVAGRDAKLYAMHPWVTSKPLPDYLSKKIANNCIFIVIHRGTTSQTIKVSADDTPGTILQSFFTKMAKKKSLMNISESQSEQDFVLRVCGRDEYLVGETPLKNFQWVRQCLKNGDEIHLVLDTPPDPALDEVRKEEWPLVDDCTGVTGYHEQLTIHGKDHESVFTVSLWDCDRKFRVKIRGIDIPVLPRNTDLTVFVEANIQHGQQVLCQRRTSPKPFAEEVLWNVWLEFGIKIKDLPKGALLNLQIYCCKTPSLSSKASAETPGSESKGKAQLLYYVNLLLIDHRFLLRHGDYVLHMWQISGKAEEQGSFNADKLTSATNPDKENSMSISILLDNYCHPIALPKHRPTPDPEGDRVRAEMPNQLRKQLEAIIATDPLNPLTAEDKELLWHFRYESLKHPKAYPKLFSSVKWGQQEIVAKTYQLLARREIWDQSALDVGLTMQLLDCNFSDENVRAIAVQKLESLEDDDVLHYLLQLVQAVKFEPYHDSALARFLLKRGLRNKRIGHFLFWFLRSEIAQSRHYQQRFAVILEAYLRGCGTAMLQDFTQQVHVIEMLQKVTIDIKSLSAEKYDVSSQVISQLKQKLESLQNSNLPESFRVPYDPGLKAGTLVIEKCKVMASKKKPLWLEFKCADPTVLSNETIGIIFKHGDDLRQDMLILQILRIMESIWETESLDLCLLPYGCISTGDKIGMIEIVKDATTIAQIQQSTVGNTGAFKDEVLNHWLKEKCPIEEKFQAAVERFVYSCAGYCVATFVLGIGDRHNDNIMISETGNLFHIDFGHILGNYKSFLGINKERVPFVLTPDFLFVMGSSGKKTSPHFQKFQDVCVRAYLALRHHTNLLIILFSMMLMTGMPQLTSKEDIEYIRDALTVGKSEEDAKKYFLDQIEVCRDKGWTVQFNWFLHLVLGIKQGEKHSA

[4] = biological target: T1, Phosphatidylinositol 4,5-bisphosphate 3-kinase catalytic subunit delta isoform; test: Inhibition of PI3Kdelta in anti-IgM-stimulated human JeKo-1 cells assessed as inhibition of AKT phosphorylation at Ser473 residue incubated for 60 mins by TR-FRET assay
[5] = biological target: Phosphatidylinositol 4,5-bisphosphate 3-kinase catalytic subunit alpha isoform (Homo sapiens, UniProt P42336); test: Inhibition of recombinant human PI3Kalpha assessed as reduction in ADP production using Dic8-PIP2 as substrate pre-treated for 15 mins followed by substrate addition measured after 60 mins by ADP-glo assay
Phosphatidylinositol 4,5-bisphosphate 3-kinase catalytic subunit alpha isoform, sequence (P42336 whole entry, canonical isoform): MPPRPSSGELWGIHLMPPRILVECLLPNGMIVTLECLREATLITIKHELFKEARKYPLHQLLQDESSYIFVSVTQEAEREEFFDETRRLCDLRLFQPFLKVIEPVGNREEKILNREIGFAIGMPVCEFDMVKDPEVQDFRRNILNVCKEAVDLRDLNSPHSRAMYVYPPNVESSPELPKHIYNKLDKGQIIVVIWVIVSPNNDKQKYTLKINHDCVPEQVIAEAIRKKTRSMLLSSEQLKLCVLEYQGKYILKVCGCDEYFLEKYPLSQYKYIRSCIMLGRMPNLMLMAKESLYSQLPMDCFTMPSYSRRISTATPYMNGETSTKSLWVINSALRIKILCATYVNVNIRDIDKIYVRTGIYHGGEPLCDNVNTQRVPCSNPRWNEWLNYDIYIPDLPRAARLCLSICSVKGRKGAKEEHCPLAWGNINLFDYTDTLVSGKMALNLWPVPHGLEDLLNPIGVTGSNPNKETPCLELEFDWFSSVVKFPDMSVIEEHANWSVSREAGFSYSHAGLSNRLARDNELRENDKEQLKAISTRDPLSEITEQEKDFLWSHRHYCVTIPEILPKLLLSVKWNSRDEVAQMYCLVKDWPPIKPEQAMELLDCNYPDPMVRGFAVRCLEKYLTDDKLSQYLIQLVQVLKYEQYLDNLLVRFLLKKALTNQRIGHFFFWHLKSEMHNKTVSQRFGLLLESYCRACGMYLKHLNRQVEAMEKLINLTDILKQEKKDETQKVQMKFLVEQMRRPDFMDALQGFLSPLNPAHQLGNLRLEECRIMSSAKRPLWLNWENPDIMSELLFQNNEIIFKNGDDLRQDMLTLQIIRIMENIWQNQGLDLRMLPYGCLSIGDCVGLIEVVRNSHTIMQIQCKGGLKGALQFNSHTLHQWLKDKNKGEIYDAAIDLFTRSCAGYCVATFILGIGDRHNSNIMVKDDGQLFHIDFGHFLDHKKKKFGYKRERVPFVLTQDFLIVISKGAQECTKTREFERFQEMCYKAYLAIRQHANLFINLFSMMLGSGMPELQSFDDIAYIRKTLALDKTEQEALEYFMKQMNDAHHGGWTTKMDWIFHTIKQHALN

Phosphatidylinositol 4,5-bisphosphate 3-kinase catalytic subunit gamma isoform (Homo sapiens, UniProt P48736), sequence (P48736 whole entry, canonical isoform): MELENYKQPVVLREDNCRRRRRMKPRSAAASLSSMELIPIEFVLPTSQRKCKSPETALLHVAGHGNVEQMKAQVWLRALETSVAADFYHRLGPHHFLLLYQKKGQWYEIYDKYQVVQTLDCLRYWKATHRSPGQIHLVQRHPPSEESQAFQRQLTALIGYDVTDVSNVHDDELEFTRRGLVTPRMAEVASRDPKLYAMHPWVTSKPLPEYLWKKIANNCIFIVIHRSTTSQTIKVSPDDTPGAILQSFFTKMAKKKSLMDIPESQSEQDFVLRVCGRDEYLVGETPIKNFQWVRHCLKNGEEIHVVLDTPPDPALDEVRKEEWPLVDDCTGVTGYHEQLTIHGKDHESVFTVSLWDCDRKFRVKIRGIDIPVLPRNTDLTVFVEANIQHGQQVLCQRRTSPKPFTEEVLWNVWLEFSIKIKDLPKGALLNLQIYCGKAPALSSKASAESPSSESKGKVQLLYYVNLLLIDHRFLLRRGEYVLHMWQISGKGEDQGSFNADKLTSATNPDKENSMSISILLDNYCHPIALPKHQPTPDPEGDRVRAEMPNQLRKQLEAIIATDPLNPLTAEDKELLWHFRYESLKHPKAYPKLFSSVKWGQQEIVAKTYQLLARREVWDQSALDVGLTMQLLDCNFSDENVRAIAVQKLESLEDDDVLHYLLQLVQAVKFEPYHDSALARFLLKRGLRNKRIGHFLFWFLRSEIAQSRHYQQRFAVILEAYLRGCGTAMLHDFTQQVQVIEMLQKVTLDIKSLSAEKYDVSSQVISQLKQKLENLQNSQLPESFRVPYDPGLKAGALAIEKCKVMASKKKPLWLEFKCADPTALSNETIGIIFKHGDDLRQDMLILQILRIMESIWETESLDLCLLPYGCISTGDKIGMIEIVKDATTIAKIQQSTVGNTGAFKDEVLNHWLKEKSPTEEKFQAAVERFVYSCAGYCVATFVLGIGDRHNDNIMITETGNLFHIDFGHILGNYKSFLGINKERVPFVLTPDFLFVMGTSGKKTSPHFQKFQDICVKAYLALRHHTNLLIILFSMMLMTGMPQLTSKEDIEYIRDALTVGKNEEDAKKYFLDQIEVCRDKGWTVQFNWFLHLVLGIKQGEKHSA

Compound | IC50 [1] [nM] | IC50 [2] [nM] | IC50 [3] [nM] | IC50 [4] [nM] | IC50 [5] [nM]
CNS(=O)(=O)c1cc(-c2sc(Nc3cccc(C(=O)NCCCN(C)C)n3)nc2C)cc2c1C(=O)N([C@@H](C)C1CC1)C2 | 3.16 | 3.98 | – | – | –
CC(=O)Nc1nc(C)c(-c2cc3c(c(S(=O)(=O)Nc4cccc(S(C)(=O)=O)c4)c2)C(=O)N([C@@H](C)C2CC2)C3)s1 | 1.26 | 3.16 | 15.8 | 31.6 | –
Cc1nc(-c2cccc(Nc3nc(C)c(-c4cc5c(c(S(C)(=O)=O)c4)C(=O)N([C@@H](C)C4CC4)C5)s3)n2)n(C)n1 | 1 | 1.58 | – | – | –
Cc1nc2sc1-c1cc3c(c(c1)S(=O)(=O)Nc1ccc(cc1)CN(C)CCCCNC(=O)c1cccc(n1)N2)C(=O)N([C@@H](C)C1CC1)C3 | 10 | 1 | 5.01 | 1 | –
CC(=O)N(C)c1cccc(Nc2nc(C)c(-c3cc4c(c(S(C)(=O)=O)c3)C(=O)N([C@@H](C)C3CC3)C4)s2)n1 | – | 1.26 | – | – | –
Cc1nc2sc1-c1cc3c(c(c1)S(=O)(=O)NCCN(C)CCCNC(=O)c1cccc(n1)N2)C(=O)N([C@@H](C)C1CC1)C3 | 0.794 | 0.631 | 1 | 3.16 | 50.1
CC(=O)Nc1nc(C)c(-c2cc3c(c(S(=O)(=O)Nc4ccc(C#N)cc4)c2)C(=O)N([C@@H](C)C2CC2)C3)s1 | 1 | 158 | – | – | –
CC(=O)Nc1nc(C)c(-c2cc3c(c(S(=O)(=O)N(C)c4cccc(C#N)c4)c2)C(=O)N([C@@H](C)C2CC2)C3)s1 | 0.794 | 50.1 | – | – | –
Cc1nc(Nc2cccc(N3CCCC3=O)n2)sc1-c1cc2c(c(S(=O)(=O)NC3COC3)c1)C(=O)N([C@@H](C)C1CC1)C2 | – | 0.794 | 1 | 5.01 | 126
CC(=O)Nc1nc(C)c(-c2cc3c(c(S(=O)(=O)Nc4ccccc4)c2)C(=O)N([C@@H](C)C2CC2)C3)s1 | 1 | 50.1 | – | – | –
CNS(=O)(=O)c1cc(-c2sc(Nc3cccc(N(C)C(C)=O)n3)nc2C)cc2c1C(=O)N([C@@H](C)C1CC1)C2 | – | 0.794 | 1 | 6.31 | –
COCCNC(=O)c1cccc(Nc2nc(C)c(-c3cc4c(c(S(C)(=O)=O)c3)C(=O)N([C@@H](C)C3CC3)C4)s2)n1 | 0.794 | 5.01 | – | – | –
CC(=O)Nc1nc(C)c(-c2cc3c(c(S(=O)(=O)N(C)c4ccc(CN(C)C)cc4)c2)C(=O)N([C@@H](C)C2CC2)C3)s1 | 2.51 | 25.1 | – | – | –
CC(=O)Nc1nc(C)c(-c2cc3c(c(S(=O)(=O)Nc4ccc(S(C)(=O)=O)cc4)c2)C(=O)N([C@@H](C)C2CC2)C3)s1 | 1 | 158 | – | – | –
CNS(=O)(=O)c1cc(-c2sc(Nc3cccc(N4CCN(C)CC4=O)n3)nc2C)cc2c1C(=O)N([C@@H](C)C1CC1)C2 | – | 1.58 | 1.26 | 6.31 | 39.8
CNS(=O)(=O)c1cc(-c2sc(Nc3cccc(N4CCCOC4=O)n3)nc2C)cc2c1C(=O)N([C@@H](C)C1CC1)C2 | – | 0.631 | 1 | 2.51 | 20
Cc1nc(Nc2cccc(-c3ocnc3CO)n2)sc1-c1cc2c(c(S(C)(=O)=O)c1)C(=O)N([C@@H](C)C1CC1)C2 | 0.631 | 2 | – | – | –
Cc1nc(Nc2cccc(-c3nc(C)n(C)n3)n2)sc1-c1cc2c(c(S(C)(=O)=O)c1)C(=O)N([C@@H](C)C1CC1)C2 | 1 | 25.1 | – | – | –
CNS(=O)(=O)c1cc(-c2sc(Nc3cccc(C)n3)nc2C)cc2c1C(=O)N([C@@H](C)C1CC1)C2 | 1 | 50.1 | – | – | –

Compound | IC50 [1] [nM] | IC50 [2] [nM] | IC50 [3] [nM] | IC50 [4] [nM] | IC50 [5] [nM]
Cc1nc(Nc2cccc(N3CCCOC3=O)n2)sc1-c1cc2c(c(S(C)(=O)=O)c1)C(=O)N([C@@H](C)C1CC1)C2 | – | 1.26 | 1.26 | 3.98 | 20
Cc1nc(Nc2cccc(N3CCCCC3=O)n2)sc1-c1cc2c(c(S(C)(=O)=O)c1)C(=O)N([C@@H](C)C1CC1)C2 | – | 1.26 | 1.58 | 12.6 | 31.6
CNS(=O)(=O)c1cc(-c2sc(Nc3cccc(N4CC[C@@H](O)C4=O)n3)nc2C)cc2c1C(=O)N([C@@H](C)C1CC1)C2 | – | – | 2.51 | 3.98 | 15.8
CNS(=O)(=O)c1cc(-c2sc(Nc3cccc(N4CCCCC4=O)n3)nc2C)cc2c1C(=O)N([C@@H](C)C1CC1)C2 | – | – | – | – | 20
CNS(=O)(=O)c1cc(-c2sc(Nc3cccc(N4CCNCC4=O)n3)nc2C)cc2c1C(=O)N([C@@H](C)C1CC1)C2 | – | 0.794 | 3.98 | 6.31 | 39.8
CC(=O)Nc1nc(C)c(-c2cc3c(c(S(=O)(=O)Nc4cccc(C#N)c4)c2)C(=O)N([C@@H](C)C2CC2)C3)s1 | – | 10 | – | 126 | –
Cc1nc2sc1-c1cc3c(c(c1)S(=O)(=O)Nc1ccc(cc1)CN(C)CCCNC(=O)c1cccc(n1)N2)C(=O)N([C@@H](C)C1CC1)C3 | 7.94 | 0.794 | 3.98 | 1.58 | –
CC(=O)Nc1nc(C)c(-c2cc3c(c(S(=O)(=O)Nc4cc(C#N)cc(S(C)(=O)=O)c4)c2)C(=O)N([C@@H](C)C2CC2)C3)s1 | – | 25.1 | – | – | –
CCN(CC)C(=O)c1cccc(Nc2nc(C)c(-c3cc4c(c(S(=O)(=O)NC)c3)C(=O)N([C@@H](C)C3CC3)C4)s2)n1 | 3.16 | 158 | – | – | –
CC(=O)Nc1nc(C)c(-c2cc3c(c(S(=O)(=O)Nc4ccc(CN(C)C)cc4)c2)C(=O)N([C@@H](C)C2CC2)C3)s1 | 2.51 | 6.31 | – | 50.1 | –
Cc1nc(Nc2cccc(N3CCNC3=O)n2)sc1-c1cc2c(c(S(=O)(=O)NC3COC3)c1)C(=O)N([C@@H](C)C1CC1)C2 | – | 0.631 | 2 | 3.16 | 31.6
Cc1nc(Nc2cccc(N3CCN(C)C3=O)n2)sc1-c1cc2c(c(S(C)(=O)=O)c1)C(=O)N([C@@H](C)C1CC1)C2 | – | 0.794 | 1 | 3.98 | 39.8
Cc1nc2sc1-c1cc3c(c(c1)S(=O)(=O)NCCCCCNC(=O)c1cccc(n1)N2)C(=O)N([C@@H](C)C1CC1)C3 | 1.26 | 0.501 | 1.58 | 1.26 | 31.6
CNS(=O)(=O)c1cc(-c2sc(Nc3ccc(C(=O)NCCCN(C)C)cn3)nc2C)cc2c1C(=O)N([C@@H](C)C1CC1)C2 | 1.26 | 6.31 | – | – | –
CC(=O)Nc1cccc(Nc2nc(C)c(-c3cc4c(c(S(C)(=O)=O)c3)C(=O)N([C@@H](C)C3CC3)C4)s2)n1 | 1 | 15.8 | – | – | –
CNS(=O)(=O)c1cc(-c2sc(Nc3cccc(N4C[C@H](O)CC4=O)n3)nc2C)cc2c1C(=O)N([C@@H](C)C1CC1)C2 | – | 1.26 | 2 | 7.94 | –
CNS(=O)(=O)c1cc(-c2sc(Nc3cccc(N4CCOCC4=O)n3)nc2C)cc2c1C(=O)N([C@@H](C)C1CC1)C2 | – | 0.631 | 0.794 | 3.98 | 39.8
Cc1nc(Nc2cccc(N3CCOCC3=O)n2)sc1-c1cc2c(c(S(C)(=O)=O)c1)C(=O)N([C@@H](C)C1CC1)C2 | – | – | – | – | 50.1
CC(=O)Nc1nc(C)c(-c2cc3c(c(S(=O)(=O)Nc4cccc(CN(C)C)c4)c2)C(=O)N([C@@H](C)C2CC2)C3)s1 | 2 | 15.8 | – | – | –
